Laboratory results: ChEMBL document CHEMBL5365446, “Discovery, Structure-Activity Relationships, and In Vivo Activity of Dihydropyridone Agonists of the Bile Acid Receptor TGR5” (J Med Chem, 2023)
≈ marks a conversion by molar mass, not a printed value.

What was measured:
[1] = target: T1, G-protein coupled bile acid receptor 1 (Mus musculus, UniProt Q80SS6); assay: Agonist activity at mouse TGR5 receptor expressed in HEK293 cells cotransfected with pCMV AC6-TGR5 assessed as activation of intracellular cAMP production incubated overnight by luciferase reporter gene assay; format: functional, cell-based
T1 sequence (Q80SS6 whole entry): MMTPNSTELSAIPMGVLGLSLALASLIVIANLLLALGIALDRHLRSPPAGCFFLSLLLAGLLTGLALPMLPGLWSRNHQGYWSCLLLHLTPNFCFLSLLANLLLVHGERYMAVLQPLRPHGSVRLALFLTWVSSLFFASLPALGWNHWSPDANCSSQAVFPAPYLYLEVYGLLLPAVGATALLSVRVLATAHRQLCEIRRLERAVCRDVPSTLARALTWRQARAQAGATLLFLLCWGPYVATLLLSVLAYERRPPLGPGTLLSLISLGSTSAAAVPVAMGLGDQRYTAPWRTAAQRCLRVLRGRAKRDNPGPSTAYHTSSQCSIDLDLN

[2] = target: T2, G-protein coupled bile acid receptor 1 (Homo sapiens, UniProt Q8TDU6); assay: Agonist activity at human TGR5 receptor expressed in HEK293 cells cotransfected with pCMV tag4b-TGR5 assessed as activation of intracellular cAMP production incubated overnight by luciferase reporter gene assay; format: functional, cell-based
T2 sequence (Q8TDU6 whole entry): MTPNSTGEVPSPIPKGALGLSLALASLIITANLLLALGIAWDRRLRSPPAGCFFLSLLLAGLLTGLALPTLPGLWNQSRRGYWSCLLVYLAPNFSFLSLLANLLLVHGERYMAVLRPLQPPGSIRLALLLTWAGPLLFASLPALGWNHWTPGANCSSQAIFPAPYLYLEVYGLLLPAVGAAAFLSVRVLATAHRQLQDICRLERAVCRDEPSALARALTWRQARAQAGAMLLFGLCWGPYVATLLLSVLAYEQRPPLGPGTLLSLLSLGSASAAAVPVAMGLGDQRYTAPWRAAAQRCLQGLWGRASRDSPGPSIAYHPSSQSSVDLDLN

in vitro [3] = settings: CD-1, mouse, liver microsomes
[4] = Apparent permeability across basolateral to apical side in human Caco-2 cells measured after 1 hr by LC-MS/MS analysis
physchem [5] = settings: buffer, pH 7.4
in vitro [6] = settings: CD-1, mouse, liver microsomes; remark: listed apart in the source
[7] = Apparent permeability across apical to basolateral side in human Caco-2 cells measured after 1 hr by LC-MS/MS analysis
in vitro [8] = settings: CD-1, mouse, plasma
physchem [9] = settings: buffer, pH 7.4; remark: listed apart in the source

Row | SMILES | EC50 ([1]; read-out: EC50) [nM] | EC50 ([2]; read-out: EC50) [nM] | also measured
1 | CCN1C(=O)CC(c2ccc(Cl)cc2)C(C(=O)OCc2ccccc2)=C1C (stereo not given) | 900 |  | 
2 | COCCN1C(=O)CC(c2ccc(Cl)cc2)C(C(=O)OCc2cccc(C(=O)OC)c2)=C1C (stereo not given) | 800 | 800 | 
3 | CC1=C(C(=O)OCc2ccccc2)C(c2ccc(Cl)cc2)CC(=O)N1Cc1ccccc1 (stereo not given) | 900 | 800 | 
4 | COCCN1C(=O)CC(c2ccc(Cl)cc2)C(C(=O)OCc2ccc(OC)cc2)=C1C (stereo not given) | 300 |  | 
5 | COCCN1C(=O)CC(c2ccc(Cl)cc2)C(C(=O)OCc2ccc(C(F)(F)F)cc2)=C1C (stereo not given) | 400 |  | 
6 | CC1=C(C(=O)OCc2ccccc2)C(c2ccccc2OC(C)C)CC(=O)N1 (stereo not given) | 2300 |  | 
7 | COc1ccccc1COC(=O)C1=C(C)N(C[C@H]2CCCO2)C(=O)C[C@H]1c1ccc(Cl)cc1 (racemic) |  | 30 | EC50 ([2]; read-out: pEC50 (converted)): 25.1 nM
8 | CCCCN1C(=O)CC(c2ccc(Cl)cc2)C(C(=O)OCc2ccccc2)=C1C (stereo not given) | 900 | 500 | 
9 | COCCN1C(=O)CC(c2ccc(Cl)cc2)C(C(=O)OCc2c(C)cc(C)cc2C)=C1C (stereo not given) | 300 |  | 
10 | COc1ccccc1COC(=O)C1=C(C)N(CCO)C(=O)CC1c1ccc(Cl)cc1 (stereo not given) | 770 |  | 
11 | COCCN1C(=O)CC(c2ccc(Cl)cc2)C(C(=O)OCc2cccc(OC)c2)=C1C (stereo not given) |  | 300 | 
12 | COc1ccccc1COC(=O)C1=C(C)N(Cc2ccco2)C(=O)CC1c1ccc(Cl)cc1 (stereo not given) | 160 | 260 | 
13 | COCCN1C(=O)CC(c2ccc(Cl)cc2)C(C(=O)OCc2ccccc2)=C1C (stereo not given) | 900 | 500 | 
14 | CC1=C(C(=O)OCc2ccccc2)C(c2ccc(Cl)cc2)CC(=O)N1CCN(C)C (stereo not given) | 4700 |  | 
15 | COCCN1C(=O)CC(c2ccc(Cl)cc2)C(C(=O)OCc2cccc(C)c2)=C1C (stereo not given) |  |  | EC50 ([1]; read-out: pEC50 (converted)): 316 nM
16 | C=CCN1C(=O)CC(c2ccc(Cl)cc2)C(C(=O)OCc2ccccc2)=C1C (stereo not given) |  | 800 | EC50 ([1]; read-out: pEC50 (converted)): 1580 nM
17 | COCCN1C(=O)CC(c2ccc(Cl)cc2)C(C(=O)OCCCc2ccccc2)=C1C (stereo not given) |  | 800 | 
18 | CC1=C(C(=O)OCc2ccccc2)C(c2ccc(C)cc2)CC(=O)N1 (stereo not given) |  | 6300 | 
19 | COCCN1C(=O)CC(c2ccc(Cl)cc2)C(C(=O)OCc2cccc(F)c2)=C1C (stereo not given) | 800 |  | 
20 | CC1=C(C(=O)OCc2ccccc2)C(c2ccc(Cl)cc2F)CC(=O)N1 (stereo not given) |  | 2000 | 
21 | COCCN1C(=O)CC(c2ccc(Cl)cc2)C(C(=O)OCc2ccccc2F)=C1C (stereo not given) | 600 | 300 | 
22 | CC1=C(C(=O)OCc2ccccc2)C(c2ccc(Cl)cc2)CC(=O)N1C (stereo not given) |  |  | EC50 ([2]; read-out: pEC50 (converted)): 631 nM
23 | CC1=C(C(=O)OCc2ccccc2)C(c2ccc(C(F)(F)F)cc2)CC(=O)N1 (stereo not given) |  | 1200 | 
24 | COc1ccccc1COC(=O)C1=C(C)N(C[C@@H]2CCCO2)C(=O)C[C@@H]1c1ccc(Cl)nc1 |  | 429 | 
25 | COCCCN1C(=O)CC(c2ccc(Cl)cc2)C(C(=O)OCc2ccccc2OC)=C1C (stereo not given) | 730 | 190 | 
26 | COCCN1C(=O)CC(c2ccc(Cl)cc2)C(C(=O)OCc2ccccc2C(F)(F)F)=C1C (stereo not given) |  | 1200 | EC50 ([1]; read-out: pEC50 (converted)): 1260 nM

Row | SMILES | EC50 ([1]; read-out: EC50) [nM] | EC50 ([2]; read-out: EC50) [nM] | also measured
27 | O=C1CC(c2ccc(Cl)cc2)C(C(=O)OCc2ccccc2)=CN1 (stereo not given) | 8600 |  | 
28 | COCCN1C(=O)CC(c2ccc(Cl)cc2)C(C(=O)OCc2ccccc2OC)=C1C (single isomer, unassigned; enantiomer 1) |  | 120 | 
29 | COc1ccccc1COC(=O)C1=C(C)N(CC2CCCO2)C(=O)CC1c1ccc(Cl)nc1 (racemic; 77) |  | 2 | EC50 ([2]; read-out: pEC50 (converted)): 31.6 nM
30 | COC(=O)CN1C(=O)CC(c2ccc(Cl)cc2)C(C(=O)OCc2ccccc2OC)=C1C (stereo not given) | 50 |  | 
31 | COCCN1C(=O)CC(c2ccc(Cl)cc2)C(C(=O)OCc2ccc(C)cc2)=C1C (stereo not given) |  | 300 | 
32 | COCCN1C(=O)CC(c2ccc(Cl)cc2)C(C(=O)OCc2ccccc2OC)=C1C (single isomer, unassigned) | 120 | 75 | 
33 | COc1ccccc1COC(=O)C1=C(C)N(C[C@@H]2CCCO2)C(=O)C[C@H]1c1ccc(Cl)cc1 (racemic) |  | 110 | 
34 | COCCN1C(=O)CC(c2ccc(Cl)cc2)C(C(=O)OCc2ccccc2Cl)=C1C (stereo not given) | 1000 | 300 | 
35 | COCCN1C(=O)CC(c2ccc(Cl)cc2)C(C(=O)OCc2ccccc2OC(F)(F)F)=C1C (stereo not given) | 1200 |  | EC50 ([1]; read-out: pEC50 (converted)): 10000 nM
36 | C#CCN1C(=O)CC(c2ccc(Cl)cc2)C(C(=O)OCc2ccccc2)=C1C (stereo not given) | 1000 | 700 | 
37 | COCCN1C(=O)CC(c2ccc(Cl)cc2)C(C(=O)OCc2ccncc2)=C1C (stereo not given) | 700 | 1000 | 
38 | COCCN1C(=O)CC(c2ccc(Cl)cc2)C(C(=O)OCC2CCCCC2)=C1C (stereo not given) | 1200 | 700 | 
39 | COc1ccccc1COC(=O)C1=C(C)N(C[C@H]2CCCO2)C(=O)C[C@H]1c1ccc(Cl)nc1 |  | 2 | half-life at 40 min, 1 µM (in vitro [3]): 24 s; Papp B→A at 1 h [4]: 12.3 ×10⁻⁶ cm/s; logD at 24 h (physchem [5]): 3.7; microsomal CLint at 40 min, 1 µM (in vitro [6]): 1310 µL/min/mg; Papp A→B at 1 h [7]: 22.5 ×10⁻⁶ cm/s; half-life at 10 µM (in vitro [8]): > 6 h; solubility thermodynamic at 24 h (physchem [9]): 38.2 µM (≈ 18 µg/mL)
40 | COc1ccccc1COC(=O)C1=C(C)N(C[C@H]2CCCO2)C(=O)C[C@H]1c1ccc(Cl)cc1 |  | 14 | Papp B→A at 1 h [4]: 0.4 ×10⁻⁶ cm/s; logD at 24 h (physchem [5]): 3.2; Papp A→B at 1 h [7]: 0.2 ×10⁻⁶ cm/s; solubility thermodynamic at 24 h (physchem [9]): 2.6 µM (≈ 1.22 µg/mL); EC50 ([2]; read-out: pEC50 (converted)): 15.8 nM
41 | COCCN1C(=O)CC(c2ccc(Cl)cc2)C(C(=O)OCc2ccc(C(=O)OC)cc2)=C1C (stereo not given) |  | 300 | 
42 | COCCN1C(=O)CC(c2ccc(Cl)cc2)C(C(=O)NCc2ccccc2)=C1C (stereo not given) |  | 13000 | 
43 | COCCN1C(=O)CC(c2ccc(Cl)cc2)C(C(=O)OCc2cccc(C(F)(F)F)c2)=C1C (stereo not given) | 800 | 400 | 
44 | COCCN1C(=O)CC(c2ccc(Cl)cc2)C(C(=O)OCc2ccc(Cl)cc2)=C1C (stereo not given) | 400 |  | 
45 | CC1=C(C(=O)OCc2ccccc2)C(c2ccc(Cl)cc2)CC(=O)N1CC1CCC1 (stereo not given) | 300 |  | EC50 ([2]; read-out: pEC50 (converted)): 316 nM
46 | COc1ccccc1COC(=O)C1=C(C)N(C[C@@H]2CCCO2)C(=O)C[C@H]1c1ccc(Cl)nc1 |  | 35 | 
47 | COc1ccccc1COC(=O)C1=C(C)N(C[C@H]2CCCO2)C(=O)C[C@@H]1c1ccc(Cl)nc1 |  | 223 | 
48 | C=C(C)CN1C(=O)CC(c2ccc(Cl)cc2)C(C(=O)OCc2ccccc2)=C1C (stereo not given) | 1100 | 800 | 
49 | COC(=O)C1=C(C)N(C)C(=O)CC1c1ccc(Cl)cc1 (stereo not given) | 15000 |  | 
50 | COc1ccccc1COC(=O)C1=C(C)N(CC2CCCO2)C(=O)CC1c1ccc(Cl)nc1 (racemic; 78) |  | 88 | 
51 | COCCN1C(=O)CC(c2ccc(Cl)cc2)C(C(=O)OCc2ccc(F)cc2)=C1C (stereo not given) | 500 | 300 | 
52 | COCCN1C(=O)CC(c2ccc(Cl)cc2)C(C(=O)OCc2cccc(Cl)c2)=C1C (stereo not given) | 600 |  | 
